From ChEMBL document CHEMBL5518226, “A Vancomycin-Templated DNA-Encoded Library for Combating Drug-Resistant Bacteria” (2024)
Converted amounts (≈) assume the structure as drawn. The source made the active and inactive calls. No cut-off for these calls is given here.

Columns and labels:
Enterococcus faecalis [1] = experiment: Antibacterial activity against vancomycin resistant Enterococcus faecalis clinical isolate 20-1 assessed as inhibition of bacterial growth incubated for 24 hrs by CLSI protocol based broth microdilution method; format: functional
Enterococcus faecium [2] = experiment: Antibacterial activity against vancomycin-resistant Enterococcus faecium 0649 assessed as reduction in bacterial survival at 3 mg/ml; format: functional, organism-based
Staphylococcus aureus [3] = experiment: Antibacterial activity against vancomycin-intermediate resistant Staphylococcus aureus Mu50 assessed as reduction in bacterial survival at 0.1 mg/ml; format: functional, organism-based
Enterococcus faecalis [4] = experiment: Antibacterial activity against Enterococcus faecalis clinical isolate 20-11 assessed as inhibition of bacterial growth incubated for 24 hrs by CLSI protocol based broth microdilution method; format: functional
Streptococcus pneumoniae [5] = experiment: Antibacterial activity against Streptococcus pneumoniae ATCC49619 assessed as inhibition of bacterial growth incubated for 24 hrs by CLSI protocol based broth microdilution method; format: functional
Streptococcus pneumoniae [6] = experiment: Antibacterial activity against penicillin resistant Streptococcus pneumoniae clinical isolate 20-1 assessed as inhibition of bacterial growth incubated for 24 hrs by CLSI protocol based broth microdilution method; format: functional
Streptococcus pneumoniae [7] = experiment: Antibacterial activity against penicillin susceptible Streptococcus pneumoniae clinical isolate 20-1 assessed as inhibition of bacterial growth incubated for 24 hrs by CLSI protocol based broth microdilution method; format: functional
Staphylococcus aureus [8] = experiment: Antibacterial activity against vancomycin-intermediate resistant Staphylococcus aureus Mu50 assessed as reduction in bacterial survival at 0.25 to 3 mg/ml; format: functional, organism-based; conditions: dose 0.25-3 mg/ml
Staphylococcus aureus [9] = experiment: Antibacterial activity against vancomycin-intermediate resistant Staphylococcus aureus ATCC700699 assessed as inhibition of bacterial growth incubated for 24 hrs by CLSI protocol based broth microdilution method; format: functional
Staphylococcus aureus [10] = experiment: Antibacterial activity against methicillin sensitive Staphylococcus aureus clinical isolate 20-45 assessed as inhibition of bacterial growth incubated for 24 hrs by CLSI protocol based broth microdilution method; format: functional
Enterococcus faecium [11] = experiment: Antibacterial activity against Enterococcus faecium clinical isolate 20-16 assessed as inhibition of bacterial growth incubated for 24 hrs by CLSI protocol based broth microdilution method; format: functional
[12] = test system: Staphylococcus epidermidis; experiment: Antibacterial activity against methicillin sensitive Staphylococcus epidermidis clinical isolate 20-1 assessed as inhibition of bacterial growth incubated for 24 hrs by CLSI protocol based broth microdilution method; format: functional
Staphylococcus aureus [13] = experiment: Antibacterial activity against methicillin sensitive Staphylococcus aureus ATCC29213 assessed as inhibition of bacterial growth incubated for 24 hrs by CLSI protocol based broth microdilution method; format: functional
Staphylococcus aureus [14] = experiment: Antibacterial activity against methicillin sensitive Staphylococcus aureus Newman assessed as inhibition of bacterial growth incubated for 24 hrs by CLSI protocol based broth microdilution method; format: functional
Staphylococcus aureus [15] = experiment: Antibacterial activity against methicillin resistant Staphylococcus aureus USA300 assessed as inhibition of bacterial growth incubated for 24 hrs by CLSI protocol based broth microdilution method; format: functional
Enterococcus faecium [16] = experiment: Antibacterial activity against Enterococcus faecium clinical isolate 20-15 assessed as inhibition of bacterial growth incubated for 24 hrs by CLSI protocol based broth microdilution method; format: functional
Staphylococcus aureus [17] = experiment: Antibacterial activity against vancomycin-intermediate resistant Staphylococcus aureus Mu50 assessed as reduction in bacterial growth by measuring fold change at 0.0625 to 64 ug/ml incubated for 24 hrs by CLSI protocol based broth microdilution method relative to vancomycin; format: functional; conditions: dose 0.0625-64 µg/ml
Staphylococcus aureus [18] = experiment: Antibacterial activity against methicillin resistant Staphylococcus aureus clinical isolate 20-34 assessed as inhibition of bacterial growth incubated for 24 hrs by CLSI protocol based broth microdilution method; format: functional
Enterococcus faecium [19] = experiment: Antibacterial activity against vancomycin-resistant Enterococcus faecium 0649 assessed as reduction in bacterial growth by measuring fold change at 0.0625 to 64 ug/ml incubated for 24 hrs by CLSI protocol based broth microdilution method relative to vancomycin; format: functional; conditions: dose 0.0625-64 µg/ml
[20] = test system: Staphylococcus epidermidis; experiment: Antibacterial activity against methicillin resistant Staphylococcus epidermidis clinical isolate 20-1 assessed as inhibition of bacterial growth incubated for 24 hrs by CLSI protocol based broth microdilution method; format: functional
Staphylococcus aureus [21] = experiment: Antibacterial activity against linezolid resistant Staphylococcus aureus clinical isolate 20-1 assessed as inhibition of bacterial growth incubated for 24 hrs by CLSI protocol based broth microdilution method; format: functional
Staphylococcus aureus [22] = experiment: Antibacterial activity against vancomycin-intermediate resistant Staphylococcus aureus Mu50 assessed as reduction in fluorescence at 10 uM incubated for 1 hrs by fluorescence microscopic analysis; format: functional, organism-based

Row | Compound | MIC (Enterococcus faecalis [1]) [µg/mL] | MIC (Enterococcus faecalis [4]) [µg/mL] | MIC (Streptococcus pneumoniae [5]) [µg/mL] | MIC (Streptococcus pneumoniae [7]) [µg/mL] | MIC (Staphylococcus aureus [9]) [µg/mL] | MIC (Staphylococcus aureus [10]) [µg/mL] | MIC (Enterococcus faecium [11]) [µg/mL] | MIC [12] [µg/mL] | MIC (Staphylococcus aureus [13]) [µg/mL] | MIC (Staphylococcus aureus [14]) [µg/mL] | MIC (Staphylococcus aureus [15]) [µg/mL] | MIC (Enterococcus faecium [16]) [µg/mL] | fold change (FC) (Staphylococcus aureus [17]) | MIC (Staphylococcus aureus [18]) [µg/mL] | fold change (FC) (Enterococcus faecium [19]) | MIC [20] [µg/mL] | also measured
1 | CN[C@H](CC(C)C)C(=O)N[C@H]1C(=O)N[C@@H](CC(N)=O)C(=O)N[C@H]2C(=O)N[C@H]3C(=O)N[C@H](C(=O)N[C@H](C(=O)O)c4cc(O)cc(O)c4-c4cc3ccc4O)[C@H](O)c3ccc(c(Cl)c3)Oc3cc2cc(c3O[C@@H]2O[C@H](CO)[C@@H](O)[C@H](O)[C@H]2O[C@H]2C[C@](C)(N)[C@H](O)[C@H](C)O2)Oc2ccc(cc2Cl)[C@H]1O [VANCOMYCIN] | > 64 | 1 (≈ 0.69 µM) | 0.5 (≈ 0.345 µM) | 0.25 (≈ 0.173 µM) | – | – | – | – | – | – | – | – | – | – | – | – | Activity (Enterococcus faecium [2]): inactive; Activity (Staphylococcus aureus [3]): inactive; MIC (Streptococcus pneumoniae [6]): 0.25 µg/mL (≈ 0.173 µM); Activity (Staphylococcus aureus [8]): Active
2 | CN[C@H](CC(C)C)C(=O)N[C@H]1C(=O)N[C@@H](CC(N)=O)C(=O)N[C@H]2C(=O)N[C@H]3C(=O)N[C@H](C(=O)N[C@H](C(=O)O)c4cc(O)cc(O)c4-c4cc3ccc4O)[C@H](O)c3ccc(c(Cl)c3)Oc3cc2cc(c3O[C@@H]2O[C@H](CO)[C@@H](O)[C@H](O)[C@H]2O[C@H]2C[C@](C)(NCc3ccc(C#Cc4ccccc4)cc3)[C@H](O)[C@H](C)O2)Oc2ccc(cc2Cl)[C@H]1O | 4 (≈ 2.44 µM) | ≤ 0.015 | ≤ 0.015 | ≤ 0.015 | 0.125 (≈ 0.0762 µM) | ≤ 0.015 | ≤ 0.015 | ≤ 0.015 | ≤ 0.015 | ≤ 0.06 | ≤ 0.06 | ≤ 0.015 | 8 | 1 (≈ 0.61 µM) | 16 | – | –
3 | CN[C@H](CC(C)C)C(=O)N[C@H]1C(=O)N[C@@H](CC(N)=O)C(=O)N[C@H]2C(=O)N[C@H]3C(=O)N[C@H](C(=O)N[C@H](C(=O)NCCCc4cn(-c5ccc(OC(F)F)cc5)nn4)c4cc(O)cc(O)c4-c4cc3ccc4O)[C@H](O)c3ccc(c(Cl)c3)Oc3cc2cc(c3O[C@@H]2O[C@H](CO)[C@@H](O)[C@H](O)[C@H]2O[C@H]2C[C@](C)(N)[C@H](O)[C@H](C)O2)Oc2ccc(cc2Cl)[C@H]1O | 16 (≈ 9.41 µM) | ≤ 0.015 | ≤ 0.015 | ≤ 0.015 | 1 (≈ 0.588 µM) | ≤ 0.015 | 0.125 (≈ 0.0736 µM) | 0.25 (≈ 0.147 µM) | ≤ 0.015 | 0.125 (≈ 0.0736 µM) | 0.06 (≈ 0.0353 µM) | ≤ 0.015 | 8 | 0.06 (≈ 0.0353 µM) | 8 | 0.25 (≈ 0.147 µM) | –
4 | CN[C@H](CC(C)C)C(=O)N[C@H]1C(=O)N[C@@H](CC(N)=O)C(=O)N[C@H]2C(=O)N[C@H]3C(=O)N[C@H](C(=O)N[C@H](C(=O)O)c4cc(O)cc(O)c4-c4cc3ccc4O)[C@H](O)c3ccc(c(Cl)c3)Oc3cc2cc(c3O[C@@H]2O[C@H](CO)[C@@H](O)[C@H](O)[C@H]2O[C@H]2C[C@](C)(NCCCc3cn(Cc4ccc(Cl)c(Cl)c4)nn3)[C@H](O)[C@H](C)O2)Oc2ccc(cc2Cl)[C@H]1O | 4 (≈ 2.33 µM) | ≤ 0.03 | ≤ 0.03 | ≤ 0.03 | 0.125 (≈ 0.0728 µM) | ≤ 0.03 | ≤ 0.03 | ≤ 0.03 | ≤ 0.03 | ≤ 0.015 | ≤ 0.015 | ≤ 0.03 | 8 | – | 8 | 0.06 (≈ 0.0349 µM) | –
5 | CN[C@H](CC(C)C)C(=O)N[C@H]1C(=O)N[C@@H](CC(N)=O)C(=O)N[C@H]2C(=O)N[C@H]3C(=O)N[C@H](C(=O)N[C@H](C(=O)O)c4cc(O)cc(O)c4-c4cc3ccc4O)[C@H](O)c3ccc(c(Cl)c3)Oc3cc2cc(c3O[C@@H]2O[C@H](CO)[C@@H](O)[C@H](O)[C@H]2O[C@H]2C[C@](C)(NCc3ccc(Oc4ccccc4)cc3)[C@H](O)[C@H](C)O2)Oc2ccc(cc2Cl)[C@H]1O | 8 (≈ 4.9 µM) | ≤ 0.03 | ≤ 0.03 | ≤ 0.03 | 0.5 (≈ 0.306 µM) | ≤ 0.03 | ≤ 0.03 | 0.125 (≈ 0.0766 µM) | ≤ 0.03 | ≤ 0.06 | ≤ 0.06 | ≤ 0.03 | 8 | – | 16 | 0.25 (≈ 0.153 µM) | –
6 | CN[C@H](CC(C)C)C(=O)N[C@H]1C(=O)N[C@@H](CC(N)=O)C(=O)N[C@H]2C(=O)N[C@H]3C(=O)N[C@H](C(=O)N[C@H](C(=O)NCCCc4cn(Cc5ccc(Cl)c(Cl)c5)nn4)c4cc(O)cc(O)c4-c4cc3ccc4O)[C@H](O)c3ccc(c(Cl)c3)Oc3cc2cc(c3O[C@@H]2O[C@H](CO)[C@@H](O)[C@H](O)[C@H]2O[C@H]2C[C@](C)(N)[C@H](O)[C@H](C)O2)Oc2ccc(cc2Cl)[C@H]1O | 16 (≈ 9.32 µM) | 0.03 (≈ 0.0175 µM) | ≤ 0.015 | ≤ 0.015 | 2 (≈ 1.17 µM) | 0.125 (≈ 0.0728 µM) | 0.06 (≈ 0.035 µM) | 0.25 (≈ 0.146 µM) | 0.125 (≈ 0.0728 µM) | 0.03 (≈ 0.0175 µM) | ≤ 0.015 | ≤ 0.015 | 8 | 0.125 (≈ 0.0728 µM) | 8 | 0.25 (≈ 0.146 µM) | MIC (Staphylococcus aureus [21]): 0.125 µg/mL (≈ 0.0728 µM)
7 | C[C@H]1COc2c(N3CCN(C)CC3)c(F)cc3c(=O)c(C(=O)O)cn1c23 [LEVOFLOXACIN ANHYDROUS] | 64 (≈ 177 µM) | 1 (≈ 2.77 µM) | – | – | 8 (≈ 22.1 µM) | 0.25 (≈ 0.692 µM) | 64 (≈ 177 µM) | 4 (≈ 11.1 µM) | 0.125 (≈ 0.346 µM) | – | – | > 64 | – | 16 (≈ 44.3 µM) | – | 4 (≈ 11.1 µM) | MIC (Staphylococcus aureus [21]): 16 µg/mL (≈ 44.3 µM)
8 | CC(C)C[C@H](C(=O)N[C@H]1C(=O)N[C@@H](CC(N)=O)C(=O)N[C@H]2C(=O)N[C@H]3C(=O)N[C@H](C(=O)N[C@H](C(=O)O)c4cc(O)cc(O)c4-c4cc3ccc4O)[C@H](O)c3ccc(c(Cl)c3)Oc3cc2cc(c3O[C@@H]2O[C@H](CO)[C@@H](O)[C@H](O)[C@H]2O[C@H]2C[C@](C)(N)[C@H](O)[C@H](C)O2)Oc2ccc(cc2Cl)[C@H]1O)N(C)C(=S)Nc1ccc2c(c1)C(=O)OC21c2ccc(O)cc2Oc2cc(O)ccc21 | – | – | – | – | – | – | – | – | – | – | – | – | – | – | – | – | Activity (Staphylococcus aureus [22]): inactive
